Columns and labels:
Format in all cases: cell-based, mouse
[1] = system: fatty acid oxidation in primary hepatocytes; experiment: Oxidation of [3H]palmitate in primary hepatocytes
Method: Primary hepatocytes were isolated using a two-step perfusion protocol, based on previous methods (Lin et al., (2004) Cell 119, 121-135.). Briefly, livers were perfused first with Hanks balanced salt solution (HBSS, pH 7.4), containing glucose (1.0 g/l), EDTA (0.2 g/l), HCO3 (2.1 g/l) and KCl (0.4 g/l) for 5 minutes. Next, livers were perfused for 15 min with a collagenase buffer (pH 7.4, Invitrogen). After perfusion, livers were dissected, minced, filtered, and hepatocytes purified using Percoll (Sigma) and plated (500,000 cells per well) on collagen coated 6 well plates (BD Biosciences) in DMEM (4.5 g/l glucose) containing 10% FBS, 2 mM pyruvate, 2% Pen/strep, […] and 100 nM insulin. Typical primary hepatocyte isolations yielded 12-14×10^6 cells per liver with 96%-98% cell viability (assessed by Trypan blue exclusion assay). Two hours after plating, medium was replaced with maintenance medium (DMEM with 0.2% BSA, 2 mM pyruvate, 2% Pen/strep, 0.1 mM dexamethasone and 1 nM insulin). Fatty acid oxidation assays were performed one day after isolation.
Cells were incubated overnight in culture medium containing 100 μM palmitate (C16:0) and 1 mM carnitine. In the final 2 hours of incubation, cells were pulsed with 1.7 μCi [9,10(n)-^3H]palmitic acid (GE Healthcare), and the medium was collected to analyze the released ^3H2O, formed during cellular oxidation of [^3H]palmitate. In brief, medium was TCA precipitated, supernatants were neutralized with NaOH and loaded onto ion exchange columns packed with DOWEX 1×2-400 resin (Sigma). The radioactive product was eluted with water and quantitated by liquid scintillation counting. Oxidation of [^3H]palmitate was normalized to protein content using Bio-Rad DC protein assay.
Ultimately, the up-regulation of lipid catabolism gene expression during nutrient deprivation leads to enhanced rates of fatty acid oxidation. […] To test this model, the rates of oxidation of palmitate, a saturated long chain fatty acid, were analyzed in primary MEFs and primary hepatocytes isolated from SIRT4 WT and KO mice. […]

[2] = system: mitochondrial fatty acid oxidation in primary MEFs; experiment: Oxidation of [3H]palmitate in primary MEFs; conditions: SIRT4 KO and WT MEFs (both cell types)
Method: Mouse embryonic fibroblasts (MEFs) were isolated on embryonic day 12.5-14.5 from heterozygous females that were mated with heterozygous males. Primary MEFs were cultured in DMEM containing 10% FBS and 0.1 mM BME and were used between passages 2 and 5. Cells were incubated overnight in culture medium containing 100 μM palmitate (C16:0) and 1 mM carnitine. In the final 2 hours of incubation, cells were pulsed with 1.7 μCi [9,10(n)-^3H]palmitic acid (GE Healthcare), and the medium was collected to analyze the released ^3H2O, formed during cellular oxidation of [^3H]palmitate. In brief, medium was TCA precipitated, supernatants were neutralized with NaOH and loaded onto ion exchange columns packed with DOWEX 1×2-400 resin (Sigma). The radioactive product was eluted with water and quantitated by liquid scintillation counting. Oxidation of [^3H]palmitate was normalized to protein content using Bio-Rad DC protein assay. […] To test this model, the rates of oxidation of palmitate, a saturated long chain fatty acid, were analyzed in primary MEFs and primary hepatocytes isolated from SIRT4 WT and KO mice. The CPT1a inhibitor, etomoxir, (Baht and Saggerson, 1989) was used to specifically block mitochondrial import of fatty acids.

[3] = system: PPARα target gene Pdk4; experiment: Induction of PPARα target gene Pdk4 in MEFs exposed to WY14643 (quantitative RT-PCR); conditions: 50 μM WY14643
Method: Mouse embryonic fibroblasts (MEFs) were isolated on embryonic day 12.5-14.5 from heterozygous females that were mated with heterozygous males. Primary MEFs were cultured in DMEM containing 10% FBS and 0.1 mM BME and were used between passages 2 and 5.
RNA was isolated from frozen liver tissue of overnight fasted mice or from cells using Trizol (Invitrogen) according to the manufacturer's instructions and further purified using RNeasy columns (Qiagen). Amplification and detection of target and reference cDNA samples was performed on a Lightcycler 480 (Roche) using Lightcycler 480 Sybr Green I Mastermix (Roche). A standard curve was generated for all genes using serial dilutions of a pool prepared from all cDNA samples. mRNA levels of target genes were normalized using beta 2 microglobulin (B2m), peptidyl-prolyl isomerase (Ppia) and ribosomal protein 16 (Rps16) as reference genes.
To determine whether SIRT4 is a bona fide repressor of PPARα in a cell-autonomous manner, the induction of the PPARα target gene Pdk4 was examined in SIRT4^−/− and SIRT4′^+/+ mouse embryonic fibroblast (MEF) cell lines exposed to the PPARα agonist WY14643 (WY), as described above.

**Q.** Which “level of Fatty Acid Oxidation” value ([1]; SIRT4 KO hepatocytes) does the source give for NC(=O)C1CCCc2c1[nH]c1ccc(Cl)cc21 (stereo not drawn) [Ex 527] here?
**A.** significantly reduced

**Q.** What about the “rate of Fatty Acid Oxidation” value ([1]; WT hepatocytes) of the same compound?
**A.** did not significantly alter

**Q.** CCOC(=O)[C@@]1(CCCCCCOc2ccc(Cl)cc2)CO1 [etomoxir] was tested. Which “mitochondrial fatty acid oxidation ([3H]palmitate)” value ([1]; both WT and SIRT4 KO hepatocytes) did it give?
**A.** effectively blocked mitochondrial fatty acid oxidation

**Q.** What about the “fatty acid oxidation ([3H]palmitate)” value [2] of the same compound?
**A.** inhibited fatty acid oxidation strongly

**Q.** For Cc1cccc(Nc2cc(Cl)nc(SCC(=O)O)n2)c1C [WY14643], which “stimulation of Pdk4 expression compared with WT cells” value ([3]; MEFs lacking SIRT4) is on record?
**A.** more than doubled

**Q.** And the “increase in Pdk4 expression” value ([3]; wild-type MEFs)?
**A.** 2 fold
